Earlier results in patent publication US20050058722A1, “Herbo-mineral formulation for refractory leukemias and lymphomas” (Sahajanand Biotech Private Limited, priority 2003, published 2005).

Columns and labels:
[1] = test system: myeloid leukemia cell lines; conditions: pre-clinical studies
lymphoid neoplasms = conditions: pre-clinical studies

Arsenic trioxide
Apoptosis and differentiation [1]: dose-dependent induction of apoptosis and partial differentiation | Apoptosis and cell cycle (lymphoid neoplasms): induction of apoptosis and cell cycle arrest
